This is an account of results in patent US20260250290A1 (BRISTOL-MYERS SQUIBB COMPANY, priority 2023, published 2026).

One assay deals with T1, full length SGK1 (Homo sapiens, UniProt O00141).
T1 construct: 125 μM full length SGK1 (Life Technologies Part #PR7358A); purchased Life Technologies PR7358A
T1 sequence (O00141 1-431): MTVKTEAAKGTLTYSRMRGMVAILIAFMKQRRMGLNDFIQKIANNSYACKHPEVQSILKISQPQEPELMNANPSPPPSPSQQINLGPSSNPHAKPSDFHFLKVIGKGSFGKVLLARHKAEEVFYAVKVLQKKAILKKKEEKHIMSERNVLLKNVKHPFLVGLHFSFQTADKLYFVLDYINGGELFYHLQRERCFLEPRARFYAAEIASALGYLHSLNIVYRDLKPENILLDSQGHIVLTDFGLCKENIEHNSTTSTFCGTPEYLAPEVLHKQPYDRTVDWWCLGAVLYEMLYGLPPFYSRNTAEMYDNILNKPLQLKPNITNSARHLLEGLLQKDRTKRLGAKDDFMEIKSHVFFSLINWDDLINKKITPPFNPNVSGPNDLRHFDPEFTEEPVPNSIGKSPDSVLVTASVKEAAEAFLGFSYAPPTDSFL
Nature of the assay: SGK1 inhibition Assay A (Caliper LabChip electrophoretic separation of fluorescent peptide substrate and phosphorylated product). It counts as biochemical. The settings on record: Assay A; 20 μM ATP, 40 min incubation; read-out: SGK1 IC50.
`CS(=O)(=O)c1ccc(-c2cc(N3CCC[C@@H](NC(=O)c4ccc(F)cc4)C3)c3c(N)ncnn23)cc1` [Example 25, (R)-N-(1-(4-amino-7-(4-(methylsulfonyl)phenyl)pyrrolo[2,1-f][1,2,4]triazin-5-yl)piperidin-3-yl)-4-fluorobenzamide]: the IC50 turned out to be 22 nM.

As for `CC(=O)c1ncc(-c2cc(N3CCC[C@@H](NC(=O)c4cccc(N5CCN(C)CC5)n4)C3)c3c(N)ncnn23)s1` [Example 791, (R)-N-(1-(7-(2-acetylthiazol-5-yl)-4-aminopyrrolo[2,1-f][1,2,4]triazin-5-yl)piperidin-3-yl)-6-(4-methylpiperazin-1-yl)picolinamide], the IC50 worked out at 15 nM.

For `Nc1ncnn2c(C3=CCN(C(=O)c4ccncc4)C3)cc(N3CCC[C@@H](NC(=O)c4ccc(Cl)s4)C3)c12` [Example 902, (R)-N-(1-(4-amino-7-(1-isonicotinoy1-2,5-dihydro-1H-pyrrol-3-yl)pyrrolo[2,1-f][1,2,4]triazin-5-yl)piperidin-3-y1)-5-chlorothiophene-2-carboxamide], the IC50 came out at 28 nM.

As for `CC(=O)N1CC=C(c2cc(N3CCC[C@@H](NC(=O)c4cccc(N5CC(C)(O)C5)n4)C3)c3c(N)ncnn23)C1` [Example 771, (R)-N-(1-(7-(1-acetyl-2,5-dihydro-1H-pyrrol-3-yl)-4-aminopyrrolo[2,1-f][1,2,4]triazin-5-yl)piperidin-3-yl)-6-(3-hydroxy-3-methylazetidin-1-yl)picolinamide], the IC50 was determined as 17 nM.

For the compound `Nc1ncnn2c(-c3cncnc3)cc(N3CCC[C@@H](NC(=O)c4sc(C(F)F)cc4N4CC5(COC5)C4)C3)c12` [Example 314, (R)—N-(1-(4-amino-7-(pyrimidin-5-yl)pyrrolo[2,1-f][1,2,4]triazin-5-yl)piperidin-3-yl)-5-(difluoromethyl)-3-(2-oxa-6-azaspiro[3.3]heptan-6-yl)thiophene-2-carboxamide], the IC50 was determined as 374 nM.

Regarding `CC(=O)N1CC=C(c2cc(N3CCC[C@@H](NC(=O)c4ccncc4)C3)c3c(N)ncnn23)C1` [Example 730, (R)-N-(1-(7-(1-acetyl-2,5-dihydro-1H-pyrrol-3-yl)-4-aminopyrrolo[2,1-f][1,2,4]triazin-5-yl)piperidin-3-yl)isonicotinamide], the IC50 came to 26 nM.

Turning to `CC(=O)N1CC=C(c2cc(N3CCCC(NC(=O)c4sc(Cl)cc4OC4CC5CC4CN5C)C3)c3c(N)ncnn23)C1` (single isomer, unassigned) [Example 609], the IC50 turned out to be 7 nM.

Take `Nc1ncnn2c(C3=CCN(C(=O)[C@H]4CCNC4)C3)cc(N3CCC[C@@H](NC(=O)c4ccc(Cl)s4)C3)c12` [Example 891, N-((R)-1-(4-amino-7-(1-((S)-pyrrolidine-3-carbonyl)-2,5-dihydro-1H-pyrrol-3-y1)pyrrolo[2,1-f][1,2,4]triazin-5-y1)piperidin-3-y1)-5-chlorothiophene-2-carboxamide]: the IC50 is 25 nM.

In the case of `CS(=O)(=O)c1ccc(-c2cc(N3CCC[C@@H](NC(=O)c4ccnnc4)C3)c3c(N)ncnn23)cc1` [Example 30, (R)-N-(1-(4-amino-7-(4-(methylsulfonyl)phenyl)pyrrolo[2,1-f][1,2,4]triazin-5-yl)piperidin-3-yl)pyridazine-4-carboxamide], the IC50 is 65 nM.

On to `CC(=O)N1CC=C(c2cc(N3CCC[C@@H](NC(=O)c4sc(Cl)cc4OC4CNC4)C3)c3c(N)ncnn23)C1` [Example 633, (R)-N-(1-(7-(1-acetyl-2,5-dihydro-1H-pyrrol-3-yl)-4-aminopyrrolo[2,1-f][1,2,4]triazin-5-yl)piperidin-3-yl)-3-(azetidin-3-yloxy)-5-chlorothiophene-2-carboxamide], for which the IC50 was determined as 6 nM.

The next assay has as its target T2, SGK1 (Homo sapiens, UniProt O00141).
T2 sequence (O00141 1-431): T1 sequence (O00141 1-431)
Nature of the assay: SGK1 inhibition Assay B (Echo mass spectrometry of phosphorylated peptide product). The class given is biochemical. The settings on record: 60 min at room temperature.
`CC(C)N1CC2(CC(Oc3cc(Cl)sc3C(=O)N[C@@H]3CCCN(c4cc(-c5ccnc(C#N)c5)n5ncnc(N)c45)C3)C2)C1` [Example 995] came in with an IC50 of 1 nM.

Regarding `Cc1nc(O[C@H]2CC[C@@H](NC(C)C)CC2)c(C(=O)N[C@@H]2CCCN(c3cc(C4=CC(=O)OC4)n4ncnc(N)c34)C2)s1` [Example 977, N—((R)-1-(4-amino-7-(5-oxo-2,5-dihydrofuran-3-yl)pyrrolo[2,1-f][1,2,4]triazin-5-yl)piperidin-3-yl)-4-(((1s,4S)-4-(isopropylamino)cyclohexyl)oxy)-2-methylthiazole-5-carboxamide], the IC50 came out at 1 nM.

Consider `Cc1nc(O[C@H]2CC[C@@H](NCC(C)(C)O)CC2)c(C(=O)N[C@@H]2CCCN(c3cc(-c4ccc(C(N)=O)c(F)c4)n4ncnc(N)c34)C2)s1` [Example 978, N—((R)-1-(4-Amino-7-(4-carbamoyl-3-fluorophenyl)pyrrolo[2,1-f][1,2,4]triazin-5-yl)piperidin-3-yl)-4-(((1s,4S)-4-((2-hydroxy-2-methylpropyl)amino)cyclohexyl)oxy)-2-methylthiazole-5-carboxamide], for which inhibition was half-maximal at 3 nM (IC50).

`CC(C)N1CC2(CN(c3cccc(C(=O)N[C@@H]4CCCN(c5cc(-c6cc(F)c(-n7cnnn7)c(F)c6)n6ncnc(N)c56)C4)n3)C2)C1` [Example 826, (R)-N-(1-(4-amino-7-(3,5-difluoro-4-(1H-tetrazol-1-yl)phenyl)pyrrolo[2,1-f][1,2,4]triazin-5-yl)piperidin-3-yl)-6-(6-isopropyl-2,6-diazaspiro[3.3]heptan-2-yl)picolinamide] had a half-inhibitory concentration (IC50) of 3 nM.

In turn, `CCC1=C(c2cc(N3CCC[C@@H](NC(=O)c4sc(C)nc4OC4CCC(N[C@H](C)COC)CC4)C3)c3c(N)ncnn23)COC1=O` (single isomer, unassigned) [Example 1024] came in with an IC50 of 0.8 nM.

The compound `CC1=C(c2cc(N3CCC[C@@H](NC(=O)c4sc(C)nc4O[C@H]4CC[C@@H](NC5CCOC5(C)C)CC4)C3)c3c(N)ncnn23)COC1=O` (stereo partly drawn) [Example 1012, N—((R)-1-(4-amino-7-(4-methyl-5-oxo-2,5-dihydrofuran-3-yl)pyrrolo[2,1-f][1,2,4]triazin-5-yl)piperidin-3-yl)-4-(((1S,4S)-4-((2,2-dimethyltetrahydrofuran-3-yl)amino)cyclohexyl)oxy)-2-methylthiazole-5-carboxamide] registered an IC50 of 1.1 nM.

Turning to `Cc1nc(OC2CCC(N3CCC3)CC2)c(C(=O)N[C@@H]2CCCN(c3cc(-c4nc(C(N)=O)cs4)n4ncnc(N)c34)C2)s1` (stereo partly drawn) [Example 1052, (R)-2-(4-amino-5-(3-(4-((4-(azetidin-1-yl)cyclohexyl)oxy)-2-methylthiazole-5-carboxamido)piperidin-1-yl)pyrrolo[2,1-f][1,2,4]triazin-7-yl)thiazole-4-carboxamide], 0.9 nM corresponded to half-maximal inhibition (IC50).

`CC(C)N1CC2(CN(c3cccc(C(=O)N[C@@H]4CCCN(c5cc(-c6ccc(-n7cnnn7)c(F)c6)n6ncnc(N)c56)C4)n3)C2)C1` [Example 816, (R)-N-(1-(4-amino-7-(3-fluoro-4-(1H-tetrazol-1-yl)phenyl)pyrrolo[2,1-f][1,2,4]triazin-5-yl)piperidin-3-yl)-6-(6-isopropyl-2,6-diazaspiro[3.3]heptan-2-yl)picolinamide] registered an IC50 of 6 nM.

In the case of `CC(C)N1CC2(CN(c3cccc(C(=O)N[C@@H]4CCCN(c5cc(-c6ccc(C#N)c(F)c6)n6ncnc(N)c56)C4)n3)C2)C1` [Example 818, (R)-N-(1-(4-amino-7-(4-cyano-3-fluorophenyl)pyrrolo[2,1-f][1,2,4]triazin-5-yl)piperidin-3-yl)-6-(6-isopropyl-2,6-diazaspiro[3.3]heptan-2-yl)picolinamide], 3 nM corresponded to half-maximal inhibition (IC50).

As to `COc1cc(-c2cc(N3CCC[C@@H](NC(=O)c4cccc(N5CC6(C5)CN(C(C)C)C6)n4)C3)c3c(N)ncnn23)ccc1-n1cnnn1` [Example 827, (R)-N-(1-(4-amino-7-(3-methoxy-4-(1H-tetrazol-1-yl)phenyl)pyrrolo[2,1-f][1,2,4]triazin-5-y1)piperidin-3-yl)-6-(6-isopropyl-2,6-diazaspiro[3.3]heptan-2-yl)picolinamide], half-maximal inhibition (IC50) was put at 7 nM.

`CC(=O)N1CC=C(c2cc(N3CCC[C@@H](NC(=O)[C@]45CCC[C@H]4C5)C3)c3c(N)ncnn23)C1` (mixture of isomers) [Example 916, (cis)-N-[(3R)-1-[7-(1-acetyl-2,5-dihydro-1H-pyrrol-3-yl)-4-aminopyrrolo[2,1-f][1,2,4]triazin-5-yl]piperidin-3-yl]bicyclo[3.1.0]hexane-1-carboxamide] registered a half-maximal inhibitory concentration (IC50) of 56 nM.

In the case of `CCN1CCC(Oc2nc(C)sc2C(=O)N[C@@H]2CCCN(c3cc(C4=CCN(C(C)=O)C4)n4ncnc(N)c34)C2)CC1(C)C` (single isomer, unassigned) [Example 946], the IC50 came out at 12 nM.

In turn, `COC1=C(C(=O)N[C@@H]2CCCN(c3cc(C4=CCN(C(C)=O)C4)n4ncnc(N)c34)C2)CN(C)C1=O` [Example 754, (R)-N-(1-(7-(1-acetyl-2,5-dihydro-1H-pyrrol-3-yl)-4-aminopyrrolo[2,1-f][1,2,4]triazin-5-yl)piperidin-3-yl)-4-methoxy-1-methyl-5-oxo-2,5-dihydro-1H-pyrrole-3-carboxamide] came in with an IC50 of 163 nM.

The compound `COC(=O)N1CC=C(c2cc(N3CCC[C@@H](NC(=O)c4cccc(N5CC6(C5)CN(C(C)C)C6)n4)C3)c3c(N)ncnn23)C1` [Example 819, methyl (R)-3-(4-amino-5-(3-(6-(6-isopropyl-2,6-diazaspiro[3.3]heptan-2-yl)picolinamido)piperidin-1-yl)pyrrolo[2,1-f][1,2,4]triazin-7-yl)-2,5-dihydro-1H-pyrrole-1-carboxylate] showed an IC50 of 21 nM.
